Active and inactive are the calls of the source. For most assays here, no stated cut-off is given here; in the data, actives have a measured Kd and inactives only a lower limit.
Key:
[1] = target: Serine/threonine-protein kinase/endoribonuclease IRE2 (Homo sapiens, UniProt Q76MJ5)
[2] = target: T1, MAP/microtubule affinity-regulating kinase 4 (Homo sapiens, UniProt Q96L34)
T1 sequence (Q96L34 whole entry): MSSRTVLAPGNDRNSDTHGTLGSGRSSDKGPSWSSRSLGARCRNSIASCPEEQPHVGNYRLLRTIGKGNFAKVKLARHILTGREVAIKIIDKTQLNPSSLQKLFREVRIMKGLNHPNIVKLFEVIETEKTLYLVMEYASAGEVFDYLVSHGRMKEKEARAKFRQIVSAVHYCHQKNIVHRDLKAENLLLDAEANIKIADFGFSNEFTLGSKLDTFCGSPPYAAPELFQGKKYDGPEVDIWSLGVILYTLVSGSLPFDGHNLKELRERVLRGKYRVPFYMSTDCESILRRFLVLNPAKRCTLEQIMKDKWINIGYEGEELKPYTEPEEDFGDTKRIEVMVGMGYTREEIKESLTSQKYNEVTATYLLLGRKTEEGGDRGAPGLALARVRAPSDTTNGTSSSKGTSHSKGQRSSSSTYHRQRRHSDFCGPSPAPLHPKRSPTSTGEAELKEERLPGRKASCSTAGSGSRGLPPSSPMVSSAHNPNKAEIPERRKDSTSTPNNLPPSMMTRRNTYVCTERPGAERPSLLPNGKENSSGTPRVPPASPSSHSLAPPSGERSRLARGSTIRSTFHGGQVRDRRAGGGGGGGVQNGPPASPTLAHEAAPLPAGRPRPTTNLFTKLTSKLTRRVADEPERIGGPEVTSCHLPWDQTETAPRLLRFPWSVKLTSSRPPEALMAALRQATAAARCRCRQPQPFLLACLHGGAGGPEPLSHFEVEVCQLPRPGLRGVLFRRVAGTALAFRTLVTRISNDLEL

[3] = target: Serine/threonine-protein kinase SIK2 (Homo sapiens, UniProt Q9H0K1)
[4] = target: T2, Glycogen phosphorylase, brain form (Homo sapiens, UniProt P11216)
T2 sequence (P11216 whole entry): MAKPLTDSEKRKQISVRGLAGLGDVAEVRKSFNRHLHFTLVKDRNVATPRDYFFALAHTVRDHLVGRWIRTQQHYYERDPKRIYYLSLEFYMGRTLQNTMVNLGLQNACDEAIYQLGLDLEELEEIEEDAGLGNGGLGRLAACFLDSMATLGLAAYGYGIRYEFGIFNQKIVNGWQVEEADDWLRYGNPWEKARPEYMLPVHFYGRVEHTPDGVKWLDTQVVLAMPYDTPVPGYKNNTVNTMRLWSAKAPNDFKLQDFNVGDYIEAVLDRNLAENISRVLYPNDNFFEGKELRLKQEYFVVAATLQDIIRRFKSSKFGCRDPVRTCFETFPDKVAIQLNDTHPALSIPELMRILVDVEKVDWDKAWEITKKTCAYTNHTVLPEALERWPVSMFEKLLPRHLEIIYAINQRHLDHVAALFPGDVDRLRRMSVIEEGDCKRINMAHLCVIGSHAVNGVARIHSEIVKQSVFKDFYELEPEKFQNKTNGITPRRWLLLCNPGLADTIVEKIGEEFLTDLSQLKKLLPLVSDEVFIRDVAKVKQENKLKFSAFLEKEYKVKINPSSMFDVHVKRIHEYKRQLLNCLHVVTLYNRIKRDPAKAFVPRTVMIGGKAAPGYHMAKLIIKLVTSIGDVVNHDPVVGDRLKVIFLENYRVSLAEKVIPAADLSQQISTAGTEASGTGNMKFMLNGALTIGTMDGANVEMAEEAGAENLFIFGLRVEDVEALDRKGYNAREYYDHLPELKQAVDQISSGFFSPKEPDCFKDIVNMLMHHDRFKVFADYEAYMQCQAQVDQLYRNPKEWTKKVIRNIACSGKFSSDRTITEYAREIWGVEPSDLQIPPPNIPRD

[5] = target: Serine/threonine-protein kinase SIK3 (Homo sapiens, UniProt Q9Y2K2)
[6] = target: Tyrosine-protein kinase CSK (Homo sapiens, UniProt P41240)
[7] = target: Insulin receptor (Homo sapiens, UniProt P06213)
[8] = target: Focal adhesion kinase 1 (Homo sapiens, UniProt Q05397)
[9] = target: T3, Mitogen-activated protein kinase 15 (Homo sapiens, UniProt Q8TD08)
T3 sequence (Q8TD08 whole entry): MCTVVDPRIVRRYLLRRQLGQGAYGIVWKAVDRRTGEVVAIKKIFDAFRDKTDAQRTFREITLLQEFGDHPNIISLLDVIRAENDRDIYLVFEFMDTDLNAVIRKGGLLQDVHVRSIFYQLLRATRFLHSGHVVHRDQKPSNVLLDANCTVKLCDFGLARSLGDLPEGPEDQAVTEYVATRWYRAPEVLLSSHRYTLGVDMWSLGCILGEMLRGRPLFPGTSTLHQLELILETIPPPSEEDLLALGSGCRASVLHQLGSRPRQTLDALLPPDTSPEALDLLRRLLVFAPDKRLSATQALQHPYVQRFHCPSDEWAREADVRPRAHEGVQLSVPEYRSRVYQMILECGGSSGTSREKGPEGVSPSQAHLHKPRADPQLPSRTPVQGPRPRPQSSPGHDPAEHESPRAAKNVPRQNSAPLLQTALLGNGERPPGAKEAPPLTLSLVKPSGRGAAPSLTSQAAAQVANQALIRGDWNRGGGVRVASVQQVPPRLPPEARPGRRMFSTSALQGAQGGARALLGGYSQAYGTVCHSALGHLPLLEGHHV

[10] = target: Serine/threonine-protein kinase/endoribonuclease IRE1 (Homo sapiens, UniProt O75460)
[11] = target: T4, Dual specificity mitogen-activated protein kinase kinase 5 (Homo sapiens, UniProt Q13163)
T4 sequence (Q13163 whole entry): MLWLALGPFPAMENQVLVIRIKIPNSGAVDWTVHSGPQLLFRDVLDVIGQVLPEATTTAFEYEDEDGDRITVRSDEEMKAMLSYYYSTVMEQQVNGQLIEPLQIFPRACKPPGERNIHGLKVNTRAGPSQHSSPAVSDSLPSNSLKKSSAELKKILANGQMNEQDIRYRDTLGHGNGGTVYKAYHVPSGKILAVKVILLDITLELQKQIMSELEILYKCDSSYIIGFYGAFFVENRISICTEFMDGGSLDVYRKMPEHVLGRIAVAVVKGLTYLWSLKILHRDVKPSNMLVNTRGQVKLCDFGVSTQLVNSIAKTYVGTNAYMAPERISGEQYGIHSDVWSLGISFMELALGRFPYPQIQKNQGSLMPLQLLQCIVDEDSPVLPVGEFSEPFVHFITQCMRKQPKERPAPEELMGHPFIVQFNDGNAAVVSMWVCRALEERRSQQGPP

Serine/threonine-protein kinase SIK2, sequence (Q9H0K1 whole entry): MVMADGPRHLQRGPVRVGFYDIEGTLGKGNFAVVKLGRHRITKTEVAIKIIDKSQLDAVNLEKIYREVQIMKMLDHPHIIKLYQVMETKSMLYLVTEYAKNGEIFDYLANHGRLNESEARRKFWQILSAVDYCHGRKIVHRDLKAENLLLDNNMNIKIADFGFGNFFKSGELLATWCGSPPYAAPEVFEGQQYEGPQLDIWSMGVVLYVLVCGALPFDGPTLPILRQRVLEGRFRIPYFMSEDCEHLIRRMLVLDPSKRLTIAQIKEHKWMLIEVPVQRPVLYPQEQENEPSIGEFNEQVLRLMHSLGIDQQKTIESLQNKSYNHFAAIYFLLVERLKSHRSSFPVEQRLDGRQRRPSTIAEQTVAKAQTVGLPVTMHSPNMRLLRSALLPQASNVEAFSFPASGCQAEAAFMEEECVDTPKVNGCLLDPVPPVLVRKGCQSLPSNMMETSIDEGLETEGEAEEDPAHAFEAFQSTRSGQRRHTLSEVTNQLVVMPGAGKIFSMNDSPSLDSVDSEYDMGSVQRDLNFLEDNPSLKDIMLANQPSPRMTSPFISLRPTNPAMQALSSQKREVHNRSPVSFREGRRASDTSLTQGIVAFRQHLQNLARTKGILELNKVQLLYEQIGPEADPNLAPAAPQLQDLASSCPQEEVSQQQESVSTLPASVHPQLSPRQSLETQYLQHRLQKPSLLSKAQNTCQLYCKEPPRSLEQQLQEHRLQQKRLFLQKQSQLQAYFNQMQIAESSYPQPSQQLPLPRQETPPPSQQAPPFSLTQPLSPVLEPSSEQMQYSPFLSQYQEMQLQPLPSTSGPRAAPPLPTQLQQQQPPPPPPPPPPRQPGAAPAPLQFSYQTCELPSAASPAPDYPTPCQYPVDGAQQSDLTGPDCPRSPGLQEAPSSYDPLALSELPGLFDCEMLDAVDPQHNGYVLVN
Focal adhesion kinase 1, sequence (Q05397 whole entry): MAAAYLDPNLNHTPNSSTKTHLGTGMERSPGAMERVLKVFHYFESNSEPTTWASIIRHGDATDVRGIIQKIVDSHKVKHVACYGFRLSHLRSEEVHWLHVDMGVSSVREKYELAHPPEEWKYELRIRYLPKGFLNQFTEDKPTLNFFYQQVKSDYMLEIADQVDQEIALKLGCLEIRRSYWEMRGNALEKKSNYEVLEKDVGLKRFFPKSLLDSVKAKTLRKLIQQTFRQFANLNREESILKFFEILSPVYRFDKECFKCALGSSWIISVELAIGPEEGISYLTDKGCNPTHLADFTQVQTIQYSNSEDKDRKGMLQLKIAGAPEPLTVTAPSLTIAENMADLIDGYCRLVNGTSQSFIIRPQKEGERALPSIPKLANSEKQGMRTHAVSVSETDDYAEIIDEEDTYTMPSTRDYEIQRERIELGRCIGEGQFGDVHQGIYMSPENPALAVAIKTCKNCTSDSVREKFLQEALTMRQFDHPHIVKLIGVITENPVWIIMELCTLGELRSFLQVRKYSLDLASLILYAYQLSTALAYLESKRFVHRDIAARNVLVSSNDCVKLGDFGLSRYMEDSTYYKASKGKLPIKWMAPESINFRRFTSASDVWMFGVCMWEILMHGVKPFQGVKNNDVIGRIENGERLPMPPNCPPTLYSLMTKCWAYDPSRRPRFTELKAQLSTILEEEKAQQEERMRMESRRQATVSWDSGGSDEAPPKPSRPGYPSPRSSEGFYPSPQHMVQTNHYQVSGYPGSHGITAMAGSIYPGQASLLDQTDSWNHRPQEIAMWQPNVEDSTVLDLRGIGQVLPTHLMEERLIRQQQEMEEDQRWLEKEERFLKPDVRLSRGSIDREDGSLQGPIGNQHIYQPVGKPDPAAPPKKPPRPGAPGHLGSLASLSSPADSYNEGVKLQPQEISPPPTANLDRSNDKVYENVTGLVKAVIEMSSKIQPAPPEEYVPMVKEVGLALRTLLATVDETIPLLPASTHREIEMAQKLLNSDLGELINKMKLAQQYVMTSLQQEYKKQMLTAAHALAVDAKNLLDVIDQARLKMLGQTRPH
Serine/threonine-protein kinase/endoribonuclease IRE2, sequence (Q76MJ5 whole entry): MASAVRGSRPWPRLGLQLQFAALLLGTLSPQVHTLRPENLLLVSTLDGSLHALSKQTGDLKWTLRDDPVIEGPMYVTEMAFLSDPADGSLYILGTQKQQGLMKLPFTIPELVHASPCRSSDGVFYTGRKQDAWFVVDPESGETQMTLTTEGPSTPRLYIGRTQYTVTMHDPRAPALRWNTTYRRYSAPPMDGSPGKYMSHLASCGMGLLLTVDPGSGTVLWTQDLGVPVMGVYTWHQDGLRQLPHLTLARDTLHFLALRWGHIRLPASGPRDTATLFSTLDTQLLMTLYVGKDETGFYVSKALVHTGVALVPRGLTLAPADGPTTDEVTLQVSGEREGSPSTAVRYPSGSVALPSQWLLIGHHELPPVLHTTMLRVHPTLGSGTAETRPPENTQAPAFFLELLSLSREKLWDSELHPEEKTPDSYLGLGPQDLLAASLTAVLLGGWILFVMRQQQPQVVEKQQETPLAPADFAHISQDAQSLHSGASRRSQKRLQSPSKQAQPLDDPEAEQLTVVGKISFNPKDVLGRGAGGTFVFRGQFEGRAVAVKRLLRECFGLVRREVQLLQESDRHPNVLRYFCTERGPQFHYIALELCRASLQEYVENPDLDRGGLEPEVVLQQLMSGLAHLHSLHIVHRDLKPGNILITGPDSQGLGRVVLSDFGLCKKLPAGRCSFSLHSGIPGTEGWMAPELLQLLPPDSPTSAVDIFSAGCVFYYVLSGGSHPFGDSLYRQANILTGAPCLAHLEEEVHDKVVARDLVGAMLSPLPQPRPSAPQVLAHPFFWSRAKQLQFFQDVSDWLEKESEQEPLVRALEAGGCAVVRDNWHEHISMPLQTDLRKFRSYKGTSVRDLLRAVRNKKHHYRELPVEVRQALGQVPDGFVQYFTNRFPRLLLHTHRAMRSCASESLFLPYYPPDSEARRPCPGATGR
Serine/threonine-protein kinase/endoribonuclease IRE1, sequence (O75460 whole entry): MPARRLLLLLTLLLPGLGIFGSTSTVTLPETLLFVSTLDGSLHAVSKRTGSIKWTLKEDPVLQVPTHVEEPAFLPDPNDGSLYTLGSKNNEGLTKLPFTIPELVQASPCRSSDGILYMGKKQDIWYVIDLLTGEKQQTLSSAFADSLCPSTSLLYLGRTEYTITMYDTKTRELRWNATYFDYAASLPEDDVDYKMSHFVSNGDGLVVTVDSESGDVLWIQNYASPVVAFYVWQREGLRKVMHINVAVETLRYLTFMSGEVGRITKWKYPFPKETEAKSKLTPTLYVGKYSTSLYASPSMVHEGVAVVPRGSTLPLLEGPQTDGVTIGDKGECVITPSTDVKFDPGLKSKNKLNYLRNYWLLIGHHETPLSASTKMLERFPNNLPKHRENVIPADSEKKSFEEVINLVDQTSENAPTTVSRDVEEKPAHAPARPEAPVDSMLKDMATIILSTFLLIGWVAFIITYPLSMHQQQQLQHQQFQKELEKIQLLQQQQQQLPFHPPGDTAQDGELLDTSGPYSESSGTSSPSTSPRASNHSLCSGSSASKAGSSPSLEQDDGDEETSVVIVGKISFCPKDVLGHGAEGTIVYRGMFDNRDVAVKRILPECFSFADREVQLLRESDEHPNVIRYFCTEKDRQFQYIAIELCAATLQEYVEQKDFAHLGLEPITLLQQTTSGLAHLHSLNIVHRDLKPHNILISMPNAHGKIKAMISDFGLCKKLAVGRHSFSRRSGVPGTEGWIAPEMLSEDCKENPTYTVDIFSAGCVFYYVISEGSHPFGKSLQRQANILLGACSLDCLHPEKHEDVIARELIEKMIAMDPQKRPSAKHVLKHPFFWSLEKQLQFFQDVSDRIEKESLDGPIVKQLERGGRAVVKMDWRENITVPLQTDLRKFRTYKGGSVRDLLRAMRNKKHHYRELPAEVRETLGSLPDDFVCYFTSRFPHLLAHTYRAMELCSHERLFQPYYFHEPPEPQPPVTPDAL

Row | Structure (SMILES) | Kd [1] | Kd [2] | Kd [3] | Kd [4] | Kd [5] | Kd [6] | Kd [8] | Kd [10] | Kd [11] | Kd [7] | Kd [9]
1 | Cc1nc2cc(-c3nn(C(C)C)c4ncnc(N)c34)ccc2o1 | > 30 µM (inactive) | > 30 µM (inactive) | > 30 µM (inactive) | > 30 µM (inactive) | > 30 µM (inactive) | > 30 µM (inactive) | > 30 µM (inactive) | > 30 µM (inactive) | – | > 30 µM (inactive) | > 30 µM (inactive)
2 | COc1cc(Nc2ncc3c(n2)-c2ccc(Cl)cc2C(c2c(F)cccc2OC)=NC3)ccc1C(=O)O [ALISERTIB] | > 30 µM (inactive) | > 30 µM (inactive) | > 30 µM (inactive) | > 30 µM (inactive) | > 30 µM (inactive) | > 30 µM (inactive) | – | > 30 µM (inactive) | > 30 µM (inactive) | – | > 30 µM (inactive)
3 | NC(=O)Nc1cc(-c2cccc(F)c2)sc1C(=O)N[C@H]1CCCNC1 [AZD-7762] | > 30 µM (inactive) | 0.475 µM (active) | 0.007 µM (active) | > 30 µM (inactive) | 0.043 µM (active) | – | 0.948 µM (active) | – | 0.147 µM (active) | > 30 µM (inactive) | > 30 µM (inactive)
4 | Cc1cc(Nc2ncc(Cl)c(Nc3ccccc3S(=O)(=O)C(C)C)n2)c(OC(C)C)cc1C1CCNCC1 [CERITINIB] | > 30 µM (inactive) | > 30 µM (inactive) | > 30 µM (inactive) | > 30 µM (inactive) | > 30 µM (inactive) | > 30 µM (inactive) | – | > 30 µM (inactive) | > 30 µM (inactive) | – | > 30 µM (inactive)
5 | Cc1nc2cc(-n3ncc(C(=O)c4cc5ccccc5[nH]4)c3N)ccc2[nH]1 [FGFR INHIBITOR DEBIO 1347] | > 30 µM (inactive) | > 30 µM (inactive) | > 30 µM (inactive) | – | > 30 µM (inactive) | > 30 µM (inactive) | > 30 µM (inactive) | > 30 µM (inactive) | > 30 µM (inactive) | > 30 µM (inactive) | > 30 µM (inactive)
6 | CCOc1cc2ncc(C#N)c(Nc3ccc(F)c(Cl)c3)c2cc1NC(=O)/C=C/CN(C)C [PELITINIB] | > 30 µM (inactive) | > 30 µM (inactive) | – | > 30 µM (inactive) | > 30 µM (inactive) | > 30 µM (inactive) | – | > 30 µM (inactive) | > 30 µM (inactive) | > 30 µM (inactive) | > 30 µM (inactive)
7 | CNC(=O)c1cc(Oc2ccc(NC(=O)Nc3cc(C(C)(C)C)nn3-c3ccc4ncccc4c3)c(F)c2)ccn1 [REBASTINIB] | > 30 µM (inactive) | > 30 µM (inactive) | > 30 µM (inactive) | > 30 µM (inactive) | > 30 µM (inactive) | 0.41 µM (active) | > 30 µM (inactive) | – | > 30 µM (inactive) | > 30 µM (inactive) | 0.276 µM (active)
8 | CN1CCN(CCOc2cc(OC3CCOCC3)c3c(Nc4c(Cl)ccc5c4OCO5)ncnc3c2)CC1 [SARACATINIB] | > 30 µM (inactive) | > 30 µM (inactive) | 1.41 µM (active) | > 30 µM (inactive) | 4.85 µM (active) | 39.6 µM (active) | > 30 µM (inactive) | > 30 µM (inactive) | – | > 30 µM (inactive) | > 30 µM (inactive)
9 | CO[C@H]1C[C@@H]2CC[C@@H](C)[C@@](O)(O2)C(=O)C(=O)N2CCCC[C@H]2C(=O)O[C@H]([C@H](C)C[C@@H]2CC[C@@H](OC(=O)C(C)(CO)CO)[C@H](OC)C2)CC(=O)[C@H](C)/C=C(\C)[C@@H](O)[C@@H](OC)C(=O)[C@H](C)C[C@H](C)/C=C/C=C/C=C/1C [TEMSIROLIMUS] | > 30 µM (inactive) | > 30 µM (inactive) | > 30 µM (inactive) | – | > 30 µM (inactive) | > 30 µM (inactive) | > 30 µM (inactive) | > 30 µM (inactive) | > 30 µM (inactive) | > 30 µM (inactive) | > 30 µM (inactive)

Now from value to molecule, other results behind:

Row | Kd [1] | Kd [2] | Kd [3] | Kd [4] | Kd [5] | Kd [6] | Kd [8] | Kd [10] | Kd [11] | Structure (SMILES) | Kd [7] | Kd [9]
10 | > 30 µM (inactive) | > 30 µM (inactive) | > 30 µM (inactive) | > 30 µM (inactive) | > 30 µM (inactive) | > 30 µM (inactive) | > 30 µM (inactive) | > 30 µM (inactive) | > 30 µM (inactive) | COc1cc2ncnc(Oc3cccc(NC(=O)Nc4cc(C(C)(C)C(F)(F)F)on4)c3)c2cc1OC [CEP-32496] | – | > 30 µM (inactive)
11 | > 30 µM (inactive) | > 30 µM (inactive) | 0.685 µM (active) | > 30 µM (inactive) | – | > 30 µM (inactive) | > 30 µM (inactive) | > 30 µM (inactive) | 1.93 µM (active) | CCn1cc(-c2ccnc3[nH]c(-c4cccc(CN(C)C)c4)cc23)c(-c2ccc(NC(=O)N(C)C)cc2)n1 [GSK-1070916] | – | > 30 µM (inactive)
12 | > 30 µM (inactive) | > 30 µM (inactive) | 0.904 µM (active) | > 30 µM (inactive) | – | > 30 µM (inactive) | – | > 30 µM (inactive) | > 30 µM (inactive) | NC(=O)c1c(OCc2c(F)cc(Br)cc2F)nsc1NC(=O)NCCCCN1CCCC1 [OSI-632] | – | > 30 µM (inactive)
13 | > 30 µM (inactive) | 0.009 µM (active) | 0.011 µM (active) | > 30 µM (inactive) | 9.65 µM (active) | > 30 µM (inactive) | – | 3.64 µM (active) | – | CC(=O)NCC(=O)N1[C@@H]2CC[C@H]1c1ccc(Nc3ncc(C(F)(F)F)c(NC4CCC4)n3)cc12 [PF-03814735] | – | > 30 µM (inactive)

From ChEMBL document CHEMBL3991601, “The target landscape of clinical kinase drugs” (Science, 2017)
